Assay results taken from article PMC12415213, “A genome-scale drug discovery pipeline uncovers therapeutic targets and a unique p97 allosteric binding site in Schistosoma mansoni” (Proceedings of the National Academy of Sciences of the …, 2025).
Entries after “also recorded” stand apart in the source; their conditions may differ. Where two headings read alike, the source gives them in different places.

Columns and labels:
[1] = system: adult S. mansoni; test: Single-concentration (10 μM) treatment of adult worms, attachment and morphology; type: cell-based, Schistosoma mansoni; conditions: in vitro culture
Method: (§1) DMSO). All selected compounds were obtained from commercial vendors (Medchemexpress, Selleck Chemicals, Sigma-Aldrich, ApexBio, Tocris, Santa Cruz Biotechnology, and Cayman Chemical Company) (Dataset S4) with […]
the activity of the desired compounds. Roughly 5 adult worm pairs were placed in 3mL Basch medium in a 12-well culture vessel, and incubated at 37° C, 5% CO2 for the length of the experiment. Compound was administered at D0, D1, and D2, media and drug refreshed every 24 hr. Worms were then allowed to remain in culture until D5, where a final assessment of worm attachment to tissue culture substate was made by light microscopy.
Observations on movement and morphology were also recorded. A negative control (0.1% DMSO) and positive control (PZQ; 10 µM in 0.1% DMSO) were included in each experiment, and each experiment was repeated in triplicate for validation. […]

[2] = system: S. mansoni vcp/p97 (Smp_018240); test: High-throughput screen of S. mansoni p97 (Kinase-Glo, single concentration); type: biochemical, Schistosoma mansoni; conditions: for Screen Inhibition (%): 10 μM compound, normalized to CB-5083 control; for inhibition of S. mansoni p97 function in the screen: high-throughput screen, 10 μM
Method: (§2) Evaluation of p97’s ATPase activity and compound potency
(§3) For manual ATP consumption assays, 1 µM p97 was incubated with 1% DMSO or inhibitor (1% DMSO final) in assay buffer [50 mM Tris (pH 7.5), 20 mM MgCl2, 1 mM EDTA, 0.5 mM tris(2-carboxyethyl)phosphine (TCEP)] for 5 minutes prior to the addition of 20 µM ATP in a 384-well plate for a total reaction volume of 10 µL, and a final concentration of 500nM enzyme and 10 µM ATP. The reaction was allowed to proceed for 50 minutes at room temperature before adding equivalent volume of Kinase-Glo Plus reagent (Promega), and a further incubation of 10 minutes in the dark. […]
High-throughput screening (HTS) assay
Kinase-Glo (Promega, part K1214) was purchased from Promega. Microtiter plates (384 wells) were purchased from Perkin Elmer. All chemicals included in the UTSW library were sourced from commercial sources […]
TimTec (500)] or UT Southwestern chemists (https://www.utsouthwestern.edu/research/core-facilities/high- […]
throughput-screening/libraries/). […]
concentration of 10 µM (0.2% DMSO). Luminescence was read by EnVision multimode plate reader (Perkin-Elmer). Assay conditions were consistent between manual and high-throughput assays [10 µM ATP, 50 mM Tris (pH 7.5), 20 mM MgCl2, 1 mM EDTA, 0.5 mM tris(2-carboxyethyl)phosphine (TCEP)]. The plates were then incubated for 50 min at room temperature before addition of Kinase-Glo reagent and further incubation in the dark for 10 minutes before reading luminescence. […]
were obtained to determine activity of compounds on the enzyme. […]

[3] = target: S. mansoni p97 (Smp_018240) (Schistosoma mansoni, UniProt G4M0P7); type: biochemical
Method: as §2
as §3, with “dark. Luminescence was read using a BioTek Synergy 2 plate reader” for “dark.”
1 μM, 500 nM, 100 nM, 50 nM, 10 nM, 5 nM, 1 nM, and 0 nM) in triplicate, maintaining a concentration of 1% […]
were calculated using GraphPad Prism. […]

[4] = target: T1, H. sapiens p97 (P55072) (Homo sapiens, UniProt P55072); test: Kinase-Glo ATP consumption assay, recombinant H. sapiens p97; type: biochemical; conditions: 100 μM to 1 nM
T1 construct: purified recombinant full-length (1-806aa) H; 6xHis (N); made in house; host or cells: E. coli BL21 (DE3)

[5] = system: K48 polyubiquitinated proteins in adult S. mansoni; test: Western blot of K48 polyubiquitinated proteins in lysate of drug-treated worms; type: cell-based, Schistosoma mansoni; conditions: adult worm lysate after 48 h of treatment
Method: as §1
the activity of the desired compounds. Roughly 5 adult worm pairs were placed in 3mL Basch medium in a 12-well culture vessel, and incubated at 37° C, 5% CO2 for the length of the experiment. […]
For drug treatment studies, 10 male adult worms (single or paired with females) were supplemented with either 0.1% DMSO or inhibitor (0.1% DMSO final). For all experiments assessing on-target effects of potential parasite […]
After 48 hr, male parasites were separated […]
further processing. Male worm samples were homogenized with a pestle in 50 µL lysis buffer containing 2X […]
(Roche, cOmplete Mini, EDTA-free Tablets) and 10 mM DTT. The lysates were then sonicated on high for 5 min (30 sec on, 30 sec off) using a Bioruptor UCD-200. Lysates were centrifuged for 5 min at 10,000 g to remove […]
debris. Total protein was measured using the Detergent Compatible Bradford Assay (Pierce). 50 µg of protein samples denatured in SDS Sample buffer (95°C for 5 min) were separated on a Bio-Rad 4-20% TGX Stain-Free gel along with Precision Plus Protein Dual Color Standards (Bio-Rad) as a marker. Proteins were then transferred to a nitrocellulose membrane (Bio-Rad). The membrane was blocked in a 1:5 solution of Li-Cor Odyssey Blocking buffer in PBST for 1 hr before being immunoblotted overnight at 4°C with 1:500 K48-linkage Specific […]
(1:10,000) (Developmental Studies Hybridoma Bank, JLA20) diluted in a 1:5 solution of Li-Cor Odyssey Blocking buffer in PBST. The membrane was washed 3x in TBST and then incubated in 1:5 Li-Cor Odyssey […]
in TBST 3x before being imaged on a LiCor Odyssey Infrared Imager. […]

[6] = H. sapiens p97 IC50 versus S. mansoni p97 IC50
[7] = recombinant Hsp97, Kinase-Glo, NA = no notable effect on the enzyme at tested concentrations, >100 = IC50 predicted above 100 μM or maximal inhibition not achieved
[8] = recombinant full-length enzyme, Kinase-Glo, 100 μM to 1 nM
[9] = recombinant full-length enzyme, Kinase-Glo

S. mansoni p97 (Smp_018240), sequence (G4M0P7 entry or part of it): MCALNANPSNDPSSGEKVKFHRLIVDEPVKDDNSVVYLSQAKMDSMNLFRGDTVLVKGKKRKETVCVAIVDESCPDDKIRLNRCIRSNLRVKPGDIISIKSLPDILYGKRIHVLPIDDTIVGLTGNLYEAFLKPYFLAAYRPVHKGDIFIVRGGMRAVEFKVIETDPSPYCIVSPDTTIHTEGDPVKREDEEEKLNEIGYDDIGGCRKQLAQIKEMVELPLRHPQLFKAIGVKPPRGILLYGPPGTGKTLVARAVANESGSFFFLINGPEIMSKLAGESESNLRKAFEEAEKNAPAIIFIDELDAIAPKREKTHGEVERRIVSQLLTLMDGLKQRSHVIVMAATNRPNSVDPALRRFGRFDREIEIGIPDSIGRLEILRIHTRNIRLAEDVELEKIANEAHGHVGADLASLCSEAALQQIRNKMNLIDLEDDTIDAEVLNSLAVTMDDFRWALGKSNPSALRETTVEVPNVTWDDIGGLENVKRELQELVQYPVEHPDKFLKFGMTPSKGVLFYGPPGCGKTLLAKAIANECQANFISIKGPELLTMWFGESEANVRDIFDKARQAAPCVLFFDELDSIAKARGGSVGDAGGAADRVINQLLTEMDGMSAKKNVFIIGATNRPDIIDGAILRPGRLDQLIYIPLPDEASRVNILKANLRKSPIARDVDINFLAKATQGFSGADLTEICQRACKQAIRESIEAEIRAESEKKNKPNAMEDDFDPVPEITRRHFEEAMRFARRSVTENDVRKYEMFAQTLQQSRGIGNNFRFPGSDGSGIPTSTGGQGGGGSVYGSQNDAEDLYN
T1 sequence (P55072 whole entry): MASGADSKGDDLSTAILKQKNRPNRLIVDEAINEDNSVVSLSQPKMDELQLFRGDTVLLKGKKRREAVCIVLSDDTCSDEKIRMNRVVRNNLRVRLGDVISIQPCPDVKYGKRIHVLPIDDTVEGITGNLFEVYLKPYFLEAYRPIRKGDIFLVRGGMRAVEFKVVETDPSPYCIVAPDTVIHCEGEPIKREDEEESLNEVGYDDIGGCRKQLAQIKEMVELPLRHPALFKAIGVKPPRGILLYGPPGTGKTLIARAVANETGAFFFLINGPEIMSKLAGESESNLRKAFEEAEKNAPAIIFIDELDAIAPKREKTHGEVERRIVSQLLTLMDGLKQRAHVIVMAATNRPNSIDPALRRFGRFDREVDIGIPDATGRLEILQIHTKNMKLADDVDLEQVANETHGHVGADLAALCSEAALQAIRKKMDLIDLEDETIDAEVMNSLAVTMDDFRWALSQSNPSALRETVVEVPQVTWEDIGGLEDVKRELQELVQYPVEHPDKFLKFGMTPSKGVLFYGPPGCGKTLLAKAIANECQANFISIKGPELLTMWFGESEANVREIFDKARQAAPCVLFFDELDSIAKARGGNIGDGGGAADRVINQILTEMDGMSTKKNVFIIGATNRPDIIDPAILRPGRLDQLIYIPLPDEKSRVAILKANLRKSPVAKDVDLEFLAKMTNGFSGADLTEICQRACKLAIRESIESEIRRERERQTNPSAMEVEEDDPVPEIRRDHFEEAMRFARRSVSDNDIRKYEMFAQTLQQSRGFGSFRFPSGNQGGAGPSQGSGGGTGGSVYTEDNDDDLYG

SMILES	phenotype of adult worms after treatment [1]	Screen Inhibition (%) [2]	IC50 [3]	Fold Selectivity (parasite enzyme over human enzyme) [3, 6]	IC50 [4, 7]	further results
O=C(C#Cc1ccccc1)Nc1ccc2oc(-c3cccnc3)nc2c1 [Compound 244]	did not have any adverse effects on worm health and survival	16%				
Cc1cccc(-c2nc3cc(NC(=O)C#Cc4ccncc4)ccc3o2)n1 [Compound 807]			670 ± 170 nM	0.70 fold	490 ± 57 nM	
O=C(C#Cc1cccc(Cl)c1)Nc1ccc2oc(-c3ccccn3)nc2c1 [Compound 735]	still active on worms		11000 ± 470 nM	0.70 fold	7300 ± 660 nM	
O=C(C#Cc1ccccc1)Nc1ccc2oc(-c3ccccc3)nc2c1 [Compound 245]	did cause detachment, it did not lead to parasite death	36%	3800 ± 190 nM			
O=C(C#Cc1cccnc1)Nc1ccc2oc(-c3ccccn3)nc2c1 [Compound 738]	death of the parasites		420 ± 57 nM	1.9 fold	780 ± 140 nM	
c1ccc(CNc2nc(NCc3ccccc3)c3ccccc3n2)cc1 [DbeQ, reference compound]	activity on the worms					accumulation of K48 polyubiquitinated proteins by western blot [5]: did not observe the same accumulation; IC50 [3, 8]: 12000 nM; IC50 [4, 9]: 910 ± 390 nM
Cc1ccc(-c2nc3cc(NC(=O)C#Cc4ccncc4)ccc3o2)nc1 [Compound 806]			470 ± 170 nM	1.1 fold	510 ± 160 nM	
O=C(CCc1ccccc1)Nc1ccc2oc(-c3ccccn3)nc2c1 [Compound 326]		2.2%				inhibition of S. mansoni p97 function in the screen [2]: inactive
O=C(/C=C\c1ccccc1)Nc1ccc2oc(-c3ccccc3)nc2c1 [Compound 324]		1.1%				inhibition of S. mansoni p97 function in the screen [2]: inactive
O=C(C#Cc1ccncc1)Nc1ccc2oc(-c3ccccn3)nc2c1 [Compound 739]	death of the parasites			2.1 fold	320 ± 26 nM	accumulation of K48 polyubiquitinated proteins by western blot [5]: on-target activity by western blot; IC50 [3, 8]: 150 nM
O=C(C=Cc1ccccc1)Nc1ccc2oc(-c3ccccc3)nc2c1 [Compound 135]		1.1%				inhibition of S. mansoni p97 function in the screen [2]: inactive
Cc1ccnc(-c2nc3cc(NC(=O)C#Cc4ccncc4)ccc3o2)c1 [Compound 805]			170 ± 92 nM	0.80 fold	140 ± 78 nM	
CC(C)N1CCN(CCNC2CCN(c3cccc(-c4cc5cc(F)ccc5[nH]4)c3)CC2)CC1 [UPCDC-30245, reference compound]	effective					accumulation of K48 polyubiquitinated proteins by western blot [5]: did not see significant increases in K48 abundance; selectivity between schistosome and human p97 [3]: selective in favor of the human enzyme; IC50 [3, 8]: 4100 nM; IC50 [4, 9]: 970 ± 67 nM
O=C(C#Cc1ccccc1)Nc1ccc2oc(-c3ccccn3)nc2c1 [Compound 243]	led to death in adult parasites; also recorded: ultimately leading to their death	46%	2100 ± 750 nM		20000 ± 540 nM	Fold Selectivity (parasite enzyme over human enzyme) [3]: 9.5 fold
CC1(C)C(N(O)C(=O)Nc2ccc(Cl)cc2)N(c2ccc(Cl)cc2)C(=O)N1CC(=O)N/N=C/C=C/c1ccc([N+](=O)[O-])o1 (stereo not drawn) [Eeyarestatin I, reference compound]	effective					accumulation of K48 polyubiquitinated proteins by western blot [5]: did not see significant increases in K48 abundance
Cc1cccnc1-c1nc2cc(NC(=O)C#Cc3ccncc3)ccc2o1 [Compound 804]			190 ± 63 nM	0.70 fold	140 ± 62 nM	
O=C(C#Cc1ccc(Cl)cc1)Nc1ccc2oc(-c3ccccn3)nc2c1 [Compound 736]	decreased activity on the worms		5900 ± 1300 nM	1.1 fold	6700 ± 55 nM	
O=C(C#Cc1ccccn1)Nc1ccc2oc(-c3ccccn3)nc2c1 [Compound 737]	decreased activity on the worms		3000 ± 410 nM	4.3 fold	13000 ± 2200 nM	
COc1cccc2c(NCc3ccccc3)nc(-n3c(N)nc4ccccc43)nc12 [ML240, reference compound]	killed parasites quickly					accumulation of K48 polyubiquitinated proteins by western blot [5]: did not observe the same accumulation; Fold Selectivity (parasite enzyme over human enzyme) [3]: ~ fivefold; IC50 [3, 8]: 66 ± 9.7 nM; IC50 [4, 9]: 330 ± 61 nM
O=C(C#Cc1ccccc1)Nc1ccc2oc(-c3ccncc3)nc2c1 [Compound 242]	led to death in adult parasites; also recorded: ultimately leading to their death	47%	1400 ± 110 nM	8.6 fold	12000 ± 310 nM	
COc1ccc(C#CC(=O)Nc2ccc3oc(-c4ccccn4)nc3c2)cc1 [Compound 734]	decreased activity on the worms		48000 ± 2600 nM	1.7 fold	83000 ± 6500 nM	
O=C(C#CC1CC1)Nc1ccc2oc(-c3ccccn3)nc2c1 [Compound 732]	still active on worms					
